Laboratory results as given in patent US9024017B2, “Octahydro-cyclopentapyrrolyl antagonists of CCR2” (Janssen Pharmaceutica NV, priority 2012, dated 2015).

Target: T1, CCR2 (Homo sapiens, UniProt P41597)
T1 construct: host or cells: THP-1 (human monocytic cell line)
Experiment: MCP-1 Receptor Binding Assay in THP-1 Cells
Conditions: read-out: MCP1B_v3 IC50
In short: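 Human monocytic THP-1 cells incubated 2 h at 30 °C with 0.5 nM 125I-MCP-1 and varying concentrations of test compound or unlabelled MCP-1. Cells filter-harvested and counted by scintillation; blank subtracted, compared with vehicle; nonspecific binding with 1 μM cold MCP-1.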

T1 sequence (P41597 whole entry): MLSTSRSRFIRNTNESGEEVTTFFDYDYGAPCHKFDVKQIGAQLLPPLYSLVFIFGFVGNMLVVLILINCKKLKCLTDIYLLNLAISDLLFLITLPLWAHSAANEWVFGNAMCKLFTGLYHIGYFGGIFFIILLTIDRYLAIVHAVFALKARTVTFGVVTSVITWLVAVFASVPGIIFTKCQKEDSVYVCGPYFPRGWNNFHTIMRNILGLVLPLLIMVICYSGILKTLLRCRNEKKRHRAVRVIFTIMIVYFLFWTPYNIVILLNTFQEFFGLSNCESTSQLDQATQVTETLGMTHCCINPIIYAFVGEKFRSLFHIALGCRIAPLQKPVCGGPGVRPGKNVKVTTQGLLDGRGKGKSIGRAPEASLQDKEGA

| SMILES | IC50 |
| --- | --- |
| COC1COCCC1N[C@@H]1C[C@H]2CN(C(=O)c3ncco3)C[C@@]2(C(=O)N2CCc3ncc(C(F)(F)F)cc3C2)C1 (relative stereo) [Example 70, ((3aR,5R,6aR)-5-(((3S*,4S*)-3-Methoxytetrahydro-2H-pyran-4-yl)amino)-2-(oxazole-2-carbonyl)octahydrocyclopenta[c]pyrrol-3a-yl)(3-(trifluoromethyl)-7,8-dihydro-1,6-naphthyridin-6(5H)-yl)methanone] | 80 nM |
| COC1COCCC1N[C@@H]1C[C@H]2CN(C(=O)OCC3CCOCC3)C[C@@]2(C(=O)N2CCc3ncc(C(F)(F)F)cc3C2)C1 (relative stereo) [Example 47, (3aR,5R,6aR)-(Tetrahydro-2H-pyran-4-yl)methyl 5-(((3S*,4S*)-3-methoxytetrahydro-2H-pyran-4-yl)amino)-3a-(3-(trifluoromethyl)-5,6,7,8-tetrahydro-1,6-naphthyridine-6-carbonyl)hexahydrocyclopenta[c]pyrrole-2(1H)-carboxylate] | 30 nM |
| COC1COCCC1N[C@@H]1C[C@H]2CN(C(N)=O)C[C@@]2(C(=O)NCc2cc(F)cc(C(F)(F)F)c2)C1 (relative stereo) [Example 11, (3aR,5R,6aR)-N^3a-(3-Fluoro-5-(trifluoromethyl)benzyl)-5-(((3S*,4S*)-3-methoxytetrahydro-2H-pyran-4-yl)amino)hexahydrocyclopenta[c]pyrrole-2,3a(1H)-dicarboxamide] | 320 nM |
| CCN(CC)CCOC(=O)N1C[C@@H]2C[C@@H](NC3CCOCC3OC)C[C@]2(C(=O)N2CCc3ccc(C(F)(F)F)cc3C2)C1 (relative stereo) [Example 41, (3aR,5R,6aR)-2-(Diethylamino)ethyl 5-(((3S*,4S*)-3-methoxytetrahydro-2H-pyran-4-yl)amino)-3a-(7-(trifluoromethyl)-1,2,3,4-tetrahydroisoquinoline-2-carbonyl)hexahydrocyclopenta[c]pyrrole-2(1H)-carboxylate] | 10 nM |
| COCCOC(=O)N1C[C@@H]2C[C@@H](NC3CCOCC3OC)C[C@]2(C(=O)N2CCc3ccc(C(F)(F)F)cc3C2)C1 (relative stereo) [Example 49, (3aR,5R,6aR)-2-Methoxyethyl 5-(((3S*,4S*)-3-methoxytetrahydro-2H-pyran-4-yl)amino)-3a-(7-(trifluoromethyl)-1,2,3,4-tetrahydroisoquinoline-2-carbonyl)hexahydrocyclopenta[c]pyrrole-2(1H)-carboxylate] | 10 nM |
| COC1COCCC1N[C@@H]1C[C@H]2CNC(=O)[C@@]2(C(=O)N2CCc3ncc(C(F)(F)F)cc3C2)C1 (relative stereo) [Example 119, (3aR,5R,6aR)-5-(((3S*,4S*)-3-Methoxytetrahydro-2H-pyran-4-yl)amino)-6a-(3-(trifluoromethyl)-5,6,7,8-tetrahydro-1,6-naphthyridine-6-carbonyl)hexahydrocyclopenta-[c]pyrrol-1(2H)-one] | 12000 nM |
| COC1COCCC1N[C@@H]1C[C@H]2CN(C(=O)OCCC3CCOCC3)C[C@@]2(C(=O)N2CCc3ncc(C(F)(F)F)cc3C2)C1 (relative stereo) [Example 42, (3aR,5R,6aR)-2-(Tetrahydro-2H-pyran-4-yl)ethyl 5-(((3S*,4S*)-3-methoxytetrahydro-2H-pyran-4-yl)amino)-3a-(3-(trifluoromethyl)-5,6,7,8-tetrahydro-1,6-naphthyridine-6-carbonyl)hexahydrocyclopenta[c]pyrrole-2(1H)-carboxylate] | 30 nM |

Further lines, results first:

| IC50 | SMILES |
| --- | --- |
| 130 nM | COC1COCCC1N[C@@H]1C[C@H]2CN(C(=O)OCCC#N)C[C@@]2(C(=O)N2CCc3ncc(C(F)(F)F)cc3C2)C1 (relative stereo) [Example 52, (3aR,5R,6aR)-2-Cyanoethyl 5-(((3S*,4S*)-3-methoxytetrahydro-2H-pyran-4-yl)amino)-3a-(3-(trifluoromethyl)-5,6,7,8-tetrahydro-1,6-naphthyridine-6-carbonyl)hexahydrocyclopenta[c]pyrrole-2(1H)-carboxylate] |
| 150 nM | COC1COCCC1N[C@@H]1C[C@H]2CN(C(=O)OCCN(C)C)C[C@@]2(C(=O)N2CCc3ncc(C(F)(F)F)cc3C2)C1 (relative stereo) [Example 54, (3aR,5R,6aR)-2-(Dimethylamino)ethyl 5-(((3S*,4S*)-3-methoxytetrahydro-2H-pyran-4-yl)amino)-3a-(3-(trifluoromethyl)-5,6,7,8-tetrahydro-1,6-naphthyridine-6-carbonyl)-hexahydrocyclopenta[c]pyrrole-2(1H)-carboxylate] |
| 250 nM | CNC(=S)N1C[C@@H]2C[C@@H](N(C(=S)NC)C3CCOCC3OC)C[C@]2(C(=O)N2CCc3ncc(C(F)(F)F)cc3C2)C1 (relative stereo) [Example 28, (3aR,5R,6aR)-5-(1-((3S*,4S*)-3-Methoxytetrahydro-2H-pyran-4-yl)-3-methylthioureido)-N-methyl-3a-(3-(trifluoromethyl)-5,6,7,8-tetrahydro-1,6-naphthyridine-6-carbonyl)hexahydrocyclopenta[c]pyrrole-2(1H)-carbothioamide] |
| 230 nM | COC1COCCC1N[C@@H]1C[C@H]2CN(C(=O)CCCN(C)C)C[C@@]2(C(=O)N2CCc3ncc(C(F)(F)F)cc3C2)C1 (relative stereo) [Example 78, 4-(Dimethylamino)-1-((3aR,5R,6aR)-5-(((3S*,4S*)-3-methoxytetrahydro-2H-pyran-4-yl)amino)-3a-(3-(trifluoromethyl)-5,6,7,8-tetrahydro-1,6-naphthyridine-6-carbonyl)-hexahydrocyclopenta[c]pyrrol-2(1H)-yl)butan-1-one] |
| 30 nM | CNC(=S)N1C[C@@H]2C[C@@H](NC3CCOCC3OC)C[C@]2(C(=O)N2CCc3ncc(C(F)(F)F)cc3C2)C1 (relative stereo) [Example 27, (3aR,5R,6aR)-5-(((3S*,4S*)-3-Methoxytetrahydro-2H-pyran-4-yl)amino)-N-methyl-3a-(3-(trifluoromethyl)-5,6,7,8-tetrahydro-1,6-naphthyridine-6-carbonyl)hexahydrocyclopenta[c]pyrrole-2(1H)-carbothioamide] |
| 230 nM | COC1COCCC1N[C@@H]1C[C@H]2CN(C(=O)CCN(C)C)C[C@@]2(C(=O)N2CCc3ncc(C(F)(F)F)cc3C2)C1 (relative stereo) [Example 77, 3-(Dimethylamino)-1-((3aR,5R,6aR)-5-(((3S*,4S*)-3-methoxytetrahydro-2H-pyran-4-yl)amino)-3a-(3-(trifluoromethyl)-5,6,7,8-tetrahydro-1,6-naphthyridine-6-carbonyl)hexahydrocyclopenta[c]pyrrol-2(1H)-yl)propan-1-one] |
